Marks after values point to notes of the source that are not given here.
Columns and labels:
OCT2 (SLC22A2) = target: T1, OCT2 (SLC22A2) (Homo sapiens, UniProt O15244); experiment: Cellular uptake into OCT2-overexpressing HEK293 cells vs EV control cells (HPLC-MS/MS); details: for K m (±SEM) / v max (±SEM): OCT2, net uptake, Michaelis–Menten; for substrate activity at OCT2 (in words): uptake ratio ≥2 = notable transport; for uptake ratio OCT2 (transporter-overexpressing cells over EV control cells): mean (±SD, N): 10 μM substrate, 2 min, HEK293
T1 sequence (O15244 1-555): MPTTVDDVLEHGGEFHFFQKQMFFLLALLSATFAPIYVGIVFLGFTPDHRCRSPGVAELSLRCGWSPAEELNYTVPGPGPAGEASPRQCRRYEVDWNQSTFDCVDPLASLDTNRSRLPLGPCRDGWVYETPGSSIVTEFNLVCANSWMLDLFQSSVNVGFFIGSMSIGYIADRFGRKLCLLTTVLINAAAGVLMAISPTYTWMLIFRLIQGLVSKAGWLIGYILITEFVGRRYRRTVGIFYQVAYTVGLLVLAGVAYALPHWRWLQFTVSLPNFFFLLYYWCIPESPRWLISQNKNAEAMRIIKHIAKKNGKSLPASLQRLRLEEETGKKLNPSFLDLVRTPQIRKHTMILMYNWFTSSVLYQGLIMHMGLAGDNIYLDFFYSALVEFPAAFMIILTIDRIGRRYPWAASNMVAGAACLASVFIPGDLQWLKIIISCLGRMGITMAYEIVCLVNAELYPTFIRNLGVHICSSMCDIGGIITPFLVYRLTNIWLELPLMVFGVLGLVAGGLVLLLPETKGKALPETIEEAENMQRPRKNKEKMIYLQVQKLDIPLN

OCT1 (SLC22A1) = target: T2, OCT1 (SLC22A1) (Homo sapiens, UniProt O15245); experiment: Cellular uptake into OCT1-overexpressing HEK293 cells vs EV control cells (HPLC-MS/MS); details: for K m (±SEM) / v max (±SEM): OCT1, net uptake, Michaelis–Menten; for substrate activity at OCT1 (in words): uptake ratio ≥2 = notable transport; for uptake ratio OCT1 (transporter-overexpressing cells over EV control cells): mean (±SD, N): 10 μM substrate, 2 min, HEK293
T2 sequence (O15245 1-554): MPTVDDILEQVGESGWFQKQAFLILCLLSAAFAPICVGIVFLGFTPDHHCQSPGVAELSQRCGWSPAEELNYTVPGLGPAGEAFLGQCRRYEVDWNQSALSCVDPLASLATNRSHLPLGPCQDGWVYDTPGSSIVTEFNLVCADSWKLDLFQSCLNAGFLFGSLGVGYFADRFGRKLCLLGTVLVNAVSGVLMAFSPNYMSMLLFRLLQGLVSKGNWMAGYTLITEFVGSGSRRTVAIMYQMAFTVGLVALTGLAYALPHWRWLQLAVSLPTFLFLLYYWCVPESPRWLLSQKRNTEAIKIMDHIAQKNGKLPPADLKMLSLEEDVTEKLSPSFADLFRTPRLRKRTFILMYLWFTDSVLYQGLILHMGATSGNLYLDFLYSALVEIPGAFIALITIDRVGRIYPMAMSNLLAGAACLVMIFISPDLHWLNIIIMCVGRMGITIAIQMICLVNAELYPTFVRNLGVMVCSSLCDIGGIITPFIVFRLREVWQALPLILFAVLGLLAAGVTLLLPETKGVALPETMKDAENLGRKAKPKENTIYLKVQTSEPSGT

MATE2-K (SLC47A2) = MATE2-K (SLC47A2) (Homo sapiens, UniProt Q86VL8); experiment: Cellular uptake into MATE2-K-overexpressing HEK293 cells vs EV control cells (HPLC-MS/MS); details: 2.5 μM substrate, 1 min, 30 mM NH4Cl preincubation, HEK293
MATE2-K (SLC47A2), sequence (Q86VL8 1-566 isoform Q86VL8-3): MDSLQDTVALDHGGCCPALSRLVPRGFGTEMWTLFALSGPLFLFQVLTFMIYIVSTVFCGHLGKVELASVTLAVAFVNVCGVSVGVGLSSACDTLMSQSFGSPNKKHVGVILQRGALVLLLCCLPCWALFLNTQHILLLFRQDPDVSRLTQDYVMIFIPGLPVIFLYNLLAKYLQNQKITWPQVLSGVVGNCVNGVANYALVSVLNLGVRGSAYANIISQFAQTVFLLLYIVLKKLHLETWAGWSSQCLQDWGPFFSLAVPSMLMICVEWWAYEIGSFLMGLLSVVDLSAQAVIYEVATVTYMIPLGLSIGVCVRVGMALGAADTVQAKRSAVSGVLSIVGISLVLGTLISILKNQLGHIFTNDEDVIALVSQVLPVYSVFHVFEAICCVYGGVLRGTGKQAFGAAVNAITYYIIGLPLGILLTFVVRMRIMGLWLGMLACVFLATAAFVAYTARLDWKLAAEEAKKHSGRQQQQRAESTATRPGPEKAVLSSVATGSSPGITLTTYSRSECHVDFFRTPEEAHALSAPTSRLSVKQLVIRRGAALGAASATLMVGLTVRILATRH

OCT3 (SLC22A3) = target: T3, OCT3 (SLC22A3) (Homo sapiens, UniProt O75751); experiment: Cellular uptake into OCT3-overexpressing HEK293 cells vs EV control cells (HPLC-MS/MS); details: for K m (±SEM) / v max (±SEM): OCT3, net uptake, Michaelis–Menten; for substrate activity at OCT3 (in words): uptake ratio ≥2 = notable transport; for uptake ratio OCT3 (transporter-overexpressing cells over EV control cells): mean (±SD, N): 10 μM substrate, 2 min, HEK293
T3 sequence (O75751 1-556): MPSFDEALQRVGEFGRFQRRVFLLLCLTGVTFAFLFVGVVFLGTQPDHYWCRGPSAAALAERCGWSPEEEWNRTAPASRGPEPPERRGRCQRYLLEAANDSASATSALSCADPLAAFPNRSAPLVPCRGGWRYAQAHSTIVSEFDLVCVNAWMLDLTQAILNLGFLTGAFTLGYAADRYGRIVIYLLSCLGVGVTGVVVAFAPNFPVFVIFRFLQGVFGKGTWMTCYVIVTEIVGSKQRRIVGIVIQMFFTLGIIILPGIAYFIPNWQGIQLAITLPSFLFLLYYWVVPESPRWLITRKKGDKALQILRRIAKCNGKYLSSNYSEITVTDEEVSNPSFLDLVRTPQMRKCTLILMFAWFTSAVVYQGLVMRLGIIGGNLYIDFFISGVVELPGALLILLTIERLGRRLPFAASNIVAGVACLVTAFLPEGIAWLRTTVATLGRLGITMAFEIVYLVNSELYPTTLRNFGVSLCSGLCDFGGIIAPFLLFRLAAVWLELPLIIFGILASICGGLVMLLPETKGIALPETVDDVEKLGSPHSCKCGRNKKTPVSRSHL

MATE1 (SLC47A1) = target: T4, MATE1 (SLC47A1) (Homo sapiens, UniProt Q96FL8); experiment: Cellular uptake into MATE1-overexpressing HEK293 cells vs EV control cells (HPLC-MS/MS); details: for K m (±SEM) / v max (±SEM): MATE1, net uptake, Michaelis–Menten; for substrate activity at MATE1 (in words): uptake ratio ≥2 = notable transport; for uptake ratio MATE1 (transporter-overexpressing cells over EV control cells): mean (±SD, N): 2.5 μM substrate, 1 min, 30 mM NH4Cl preincubation, HEK293
T4 sequence (Q96FL8 1-570): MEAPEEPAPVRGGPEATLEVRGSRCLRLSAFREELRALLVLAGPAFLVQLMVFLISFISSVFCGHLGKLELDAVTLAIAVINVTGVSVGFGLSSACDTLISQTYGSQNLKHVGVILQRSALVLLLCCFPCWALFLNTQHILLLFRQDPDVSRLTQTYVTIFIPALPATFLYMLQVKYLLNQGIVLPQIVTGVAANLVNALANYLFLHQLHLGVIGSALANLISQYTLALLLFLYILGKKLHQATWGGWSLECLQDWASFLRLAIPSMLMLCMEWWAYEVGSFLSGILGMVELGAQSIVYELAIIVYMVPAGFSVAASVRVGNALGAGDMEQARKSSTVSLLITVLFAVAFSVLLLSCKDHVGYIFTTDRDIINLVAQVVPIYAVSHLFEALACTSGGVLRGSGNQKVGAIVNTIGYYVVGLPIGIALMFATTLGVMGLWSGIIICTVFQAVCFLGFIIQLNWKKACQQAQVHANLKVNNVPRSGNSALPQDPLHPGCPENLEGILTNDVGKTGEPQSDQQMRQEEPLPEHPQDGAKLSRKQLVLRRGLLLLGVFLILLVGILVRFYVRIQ

Structure (SMILES)	v max (±SEM) (OCT2 (SLC22A2))	uptake ratio MATE2K (transporter-overexpressing cells over EV control cells): mean (±SD, N) (MATE2-K (SLC47A2))	substrate activity at OCT3 (in words) (OCT3 (SLC22A3))	uptake ratio MATE1 (transporter-overexpressing cells over EV control cells): mean (±SD, N) (MATE1 (SLC47A1))	uptake ratio OCT2 (transporter-overexpressing cells over EV control cells): mean (±SD, N) (OCT2 (SLC22A2))	uptake ratio OCT3 (transporter-overexpressing cells over EV control cells): mean (±SD, N) (OCT3 (SLC22A3))	further results
NCCCCCCO [6-amino-1-hexanol]	16,933 (±2577) pmol/mg protein/min	1.4 (0.3, 3)	notable transport				K m (±SEM) (OCT2 (SLC22A2)): 1176 (±273) μM; substrate activity at OCT2 (in words) (OCT2 (SLC22A2)): notable transport; K m (±SEM) (OCT1 (SLC22A1)): 487 (±171) μM; v max (±SEM) (OCT1 (SLC22A1)): 1656 (±294) pmol/mg protein/min; substrate activity at OCT1 (in words) (OCT1 (SLC22A1)): notable transport; K m (±SEM) (OCT3 (SLC22A3)): 1168 (±151) μM; v max (±SEM) (OCT3 (SLC22A3)): 4675 (±384) pmol/mg protein/min; K m (±SEM) (MATE1 (SLC47A1)): 253 (±47) μM; v max (±SEM) (MATE1 (SLC47A1)): 14,115 (±1479) pmol/mg protein/min; substrate activity at MATE1 (in words) (MATE1 (SLC47A1)): notable transport
CC(C)CN [isobutylamine]		1.2 (0.3, 4)		0.9 (0.2, 4)	3.4 (1.2, 4) ^a	0.7 (0.2, 4) ^a	uptake ratio OCT1 (transporter-overexpressing cells over EV control cells): mean (±SD, N) (OCT1 (SLC22A1)): 1.1 (0.2, 4)
CC(C)N [isopropylamine]				1.4 (0.2, 3)	5.3 (1.7, 3) ^a	1.0 (0.2, 3)	uptake ratio OCT1 (transporter-overexpressing cells over EV control cells): mean (±SD, N) (OCT1 (SLC22A1)): 1.3 (0.2, 3)
CCN(CC)CCO [2-(diethylamino)ethanol]	794 (±109) pmol/mg protein/min	1.4 (0.2, 3)		1 (0.13, 3)	4.0 (1.5, 3)	1.2 (0.1, 3)	
NCCCCNCCCN [spermidine-(butyl-d8)]		0.8 (0.1, 3)		1.0 (0.4, 3)			

More lines, main results first:

v max (±SEM) (OCT2 (SLC22A2))	uptake ratio MATE2K (transporter-overexpressing cells over EV control cells): mean (±SD, N) (MATE2-K (SLC47A2))	substrate activity at OCT3 (in words) (OCT3 (SLC22A3))	uptake ratio MATE1 (transporter-overexpressing cells over EV control cells): mean (±SD, N) (MATE1 (SLC47A1))	Structure (SMILES)	uptake ratio OCT2 (transporter-overexpressing cells over EV control cells): mean (±SD, N) (OCT2 (SLC22A2))	uptake ratio OCT3 (transporter-overexpressing cells over EV control cells): mean (±SD, N) (OCT3 (SLC22A3))	further results
14,996 (±2181) pmol/mg protein/min	1.2 (0.6, 5)	notable transport		NCCCCCO [5-amino-1-pentanol]			K m (±SEM) (OCT2 (SLC22A2)): 1260 (±452) μM; substrate activity at OCT2 (in words) (OCT2 (SLC22A2)): notable transport; K m (±SEM) (OCT1 (SLC22A1)): 132 (±121) μM; v max (±SEM) (OCT1 (SLC22A1)): 135 (±37) pmol/mg protein/min; substrate activity at OCT1 (in words) (OCT1 (SLC22A1)): notable transport; K m (±SEM) (OCT3 (SLC22A3)): 5776 (±2458) μM; v max (±SEM) (OCT3 (SLC22A3)): 5271 (±1641) pmol/mg protein/min; K m (±SEM) (MATE1 (SLC47A1)): 1040 (±451) μM; v max (±SEM) (MATE1 (SLC47A1)): 10,761 (±2694) pmol/mg protein/min; substrate activity at MATE1 (in words) (MATE1 (SLC47A1)): notable transport
	1.0 (0.2, 3)		1.3 (0.3, 3)	CC(C)(C)N [tert-butylamine]	3.8 (1.6, 4) ^a	1.3 (0.5, 3)	
		did not show any substrate activity		NCCN(CCN)CCN [tris(2-aminoethyl)amine]			

— publication PMC12340637, “Transport of Small Aliphatic Amines by Polyspecific Solute Carriers: Deciphering Structure–Function Relationships” (ACS Pharmacology & Translational Science, 2025)
